The values that follow are results of earlier work, collected in patent US6342488B1, “Phosphonorisperidone and sulforisperidone compositions and methods” (priority 1998, dated 2002).

For this series the following is noted: condition associated with torsades de pointes.

As for `Cc1nc2n(c(=O)c1CCN1CCC(c3noc4cc(F)ccc34)CC1)CCCC2O` (centres unmarked) [hydroxyrisperidone, 9-hydroxyrisperidone], the “prolongation of QT interval” value is “implicated in a prolongation of QT interval”.

For the compound `Cc1nc2n(c(=O)c1CCN1CCC(c3noc4cc(F)ccc34)CC1)CCCC2` [risperidone, Risperidone], the “prolongation of QT interval” value is recorded as “implicated in a prolongation of QT interval”.
